Earlier results as cited in patent US20230190604A1, “DERMATOLOGIC/PERSONAL CARE CONCENTRATES” (Vantage Specialty Ingredients, Inc., priority 2021, published 2023).

Key:
[1] = water as solvent
[2] = ethanol as solvent, "normal temperatures"

- maximum concentration of azelaic acid dissolved in water [1]: about 0.24 % by weight (w/w)
- stability of azelaic acid in ethanol [2]: unstable
Compound: O=C(O)CCCCCCCC(=O)O [azelaic acid]
